Test results: patent US10167262B2, “Herbicidal substituted 3-arylpyrazoles” (FMC CORPORATION, priority 2014, dated 2019)

Tests used:
Type in all cases: in vivo
[1] = test system: Italian ryegrass (Lolium multiflorum); assay: Test E pre-/postemergence greenhouse test, plant response rating 0-100; details: Postemergence, scale 0 to 100
Outline: (§1)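 Pre: seeded silt loam sprayed; post: 1–4-leaf plants (2–18 cm) in peat-based mix sprayed. Formulation: non-phytotoxic solvent + surfactant. Greenhouse 14–21 d; visual rating vs controls, 0 = no effect, 100 = complete control.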

corn (Zea mays) = assay: as above; details: scale 0 to 100
Outline: as §1

[2] = test system: field bindweed (Convolvulus arvensis); assay: as above; details: scale 0 to 100
Outline: as §1

[3] = test system: ragweed (common ragweed, Ambrosia elatior); assay: as above; details: Preemergence, scale 0 to 100
Outline: as §1

[4] = test system: smartweed (ladysthumb smartweed, Polygonum persicaria); assay: as above; details: Postemergence, scale 0 to 100
soybean (Glycine max) = assay: as above; details: scale 0 to 100; for Soybean plant response rating: Preemergence
Outline: as §1

[5] = test system: morningglory (Ipomoea coccinea); assay: as above; details: Preemergence, scale 0 to 100
[6] = test system: smartweed (ladysthumb smartweed, Polygonum persicaria); assay: as above; details: scale 0 to 100; for Smartweed plant response rating: Preemergence
[7] = test system: waterhemp_RES1, (ALS & Triazine resistant common waterhemp, Amaranthus rudis); assay: Test E postemergence greenhouse test, plant response rating 0-100; details: scale 0 to 100
Outline: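 Visual ratings, 0 (no effect) to 100 (complete control), made versus controls 14–21 days after postemergence application in the greenhouse. Plants were at 1- to 4-leaf stage (2–18 cm) in peat moss/vermiculite potting medium.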

Cn1cc(C(=O)c2ccccc2)c(-c2cc(Cl)cc(Cl)c2)n1 [Compound 54, [3-(3,5-dichlorophenyl)-1-methyl-1H-pyrazol-4-yl]phenylmethanone]
pest or weed control at 31 g/ha ([1]; Lolium multiflorum, post-emergence, 31 g ai/ha): 0% | pest or weed control at 62 g/ha ([1]; Lolium multiflorum, post-emergence, 62 g ai/ha): 0% | pest or weed control at 125 g/ha ([1]; Lolium multiflorum, post-emergence, 125 g ai/ha): 0% | pest or weed control at 250 g/ha ([1]; Lolium multiflorum, post-emergence, 250 g ai/ha): 0% | Corn plant response rating (corn (Zea mays); Preemergence, 125 g ai/ha): 0 | Corn plant response rating (corn (Zea mays); Preemergence, 250 g ai/ha): 0 | Corn plant response rating (crop injury, 0 = no effect, 100 = complete kill) at 16 g/ha (corn (Zea mays); Zea mays, post-emergence, Postemergence, 16 g ai/ha): 0% | Corn plant response rating (crop injury, 0 = no effect, 100 = complete kill) at 31 g/ha (corn (Zea mays); Zea mays, post-emergence, Postemergence, 31 g ai/ha): 0% | Corn plant response rating (crop injury, 0 = no effect, 100 = complete kill) at 62 g/ha (corn (Zea mays); Zea mays, post-emergence, Postemergence, 62 g ai/ha): 0% | Corn plant response rating (crop injury, 0 = no effect, 100 = complete kill) at 125 g/ha (corn (Zea mays); Zea mays, post-emergence, Postemergence, 125 g ai/ha): 0% | Corn plant response rating (crop injury, 0 = no effect, 100 = complete kill) at 250 g/ha (corn (Zea mays); Zea mays, post-emergence, Postemergence, 250 g ai/ha): 0% | Corn plant response rating (crop injury, 0 = no effect, 100 = complete kill) at 1000 g/ha (corn (Zea mays); Zea mays, pre-emergence, Preemergence, 1000 g ai/ha): 0% | pest or weed control at 16 g/ha ([2]; Convolvulus arvensis, post-emergence, Postemergence, 16 g ai/ha): 0% | pest or weed control at 31 g/ha ([2]; Convolvulus arvensis, post-emergence, Postemergence, 31 g ai/ha): 0% | pest or weed control at 62 g/ha ([2]; Convolvulus arvensis, post-emergence, Postemergence, 62 g ai/ha): 0% | pest or weed control at 125 g/ha ([2]; Convolvulus arvensis, post-emergence, Postemergence, 125 g ai/ha): 0% | pest or weed control at 250 g/ha ([2]; Convolvulus arvensis, post-emergence, Postemergence, 250 g ai/ha): 0% | pest or weed control at 1000 g/ha ([2]; Convolvulus arvensis, pre-emergence, Preemergence, 1000 g ai/ha): 0% | Field Bindweed plant response rating ([2]; Preemergence, 125 g ai/ha): 0 | Field Bindweed plant response rating ([2]; Preemergence, 250 g ai/ha): 0 | Ragweed plant response rating ([3]; 125 g ai/ha): 35 | Ragweed plant response rating ([3]; 250 g ai/ha): 62 | Plant response rating, Smartweed ([4]; 250 g ai/ha): 0 | plant injury at 31 g/ha (soybean (Glycine max); Glycine max, post-emergence, Postemergence, 31 g ai/ha): 0% | plant injury at 62 g/ha (soybean (Glycine max); Glycine max, post-emergence, Postemergence, 62 g ai/ha): 0% | plant injury at 125 g/ha (soybean (Glycine max); Glycine max, post-emergence, Postemergence, 125 g ai/ha): 0% | plant injury at 250 g/ha (soybean (Glycine max); Glycine max, post-emergence, Postemergence, 250 g ai/ha): 0% | Soybean plant response rating (soybean (Glycine max); 125 g ai/ha): 0 | Soybean plant response rating (soybean (Glycine max); 250 g ai/ha): 12 | Morningglory plant response rating ([5]; 125 g ai/ha): 7 | Morningglory plant response rating ([5]; 250 g ai/ha): 12 | Smartweed plant response rating ([6]; 125 g ai/ha): 0 | Smartweed plant response rating ([6]; 250 g ai/ha): 0

CCn1cc(C(=O)c2cccs2)c(-c2cc(Cl)cc(Cl)c2)n1 [Compound 18]
Plant response rating, Ryegrass, Italian ([1]; 31 g ai/ha): 0 | Plant response rating, Ryegrass, Italian ([1]; 62 g ai/ha): 0 | Plant response rating, Ryegrass, Italian ([1]; 125 g ai/ha): 0 | Plant response rating, Ryegrass, Italian ([1]; 250 g ai/ha): 0 | Plant response rating, Ryegrass, Italian ([1]; 500 g ai/ha): 0 | Plant response rating, Corn (corn (Zea mays); Postemergence, 31 g ai/ha): 0 | Plant response rating, Corn (corn (Zea mays); Postemergence, 62 g ai/ha): 0 | Plant response rating, Corn (corn (Zea mays); Postemergence, 125 g ai/ha): 0 | Plant response rating, Corn (corn (Zea mays); Postemergence, 250 g ai/ha): 0 | Plant response rating, Corn (corn (Zea mays); Postemergence, 500 g ai/ha): 10 | Plant response rating, Field Bindweed ([2]; Postemergence, 31 g ai/ha): 0 | Plant response rating, Field Bindweed ([2]; Postemergence, 62 g ai/ha): 15 | Plant response rating, Field Bindweed ([2]; Postemergence, 125 g ai/ha): 25 | Plant response rating, Field Bindweed ([2]; Postemergence, 250 g ai/ha): 25 | Plant response rating, Field Bindweed ([2]; Postemergence, 500 g ai/ha): 35 | Plant response rating, Soybean (soybean (Glycine max); Postemergence, 31 g ai/ha): 0 | Plant response rating, Soybean (soybean (Glycine max); Postemergence, 62 g ai/ha): 0 | Plant response rating, Soybean (soybean (Glycine max); Postemergence, 125 g ai/ha): 10 | Plant response rating, Soybean (soybean (Glycine max); Postemergence, 250 g ai/ha): 20 | Plant response rating, Soybean (soybean (Glycine max); Postemergence, 500 g ai/ha): 30 | Plant response rating, Waterhemp_RES1 ([7]; 31 g ai/ha): 60 | Plant response rating, Waterhemp_RES1 ([7]; 62 g ai/ha): 70 | Plant response rating, Waterhemp_RES1 ([7]; 125 g ai/ha): 85 | Plant response rating, Waterhemp_RES1 ([7]; 250 g ai/ha): 95 | Plant response rating, Waterhemp_RES1 ([7]; 500 g ai/ha): 95 | Plant response rating, Smartweed ([6]; Postemergence, 500 g ai/ha): 20

C=CCn1cc(C(=O)c2ccccc2)c(-c2cc(Cl)cc(Cl)c2)n1 [Compound 60]
Plant response rating, Ryegrass, Italian ([1]; 31 g ai/ha): 0 | Plant response rating, Ryegrass, Italian ([1]; 62 g ai/ha): 0 | Plant response rating, Ryegrass, Italian ([1]; 125 g ai/ha): 0 | Plant response rating, Ryegrass, Italian ([1]; 250 g ai/ha): 0 | Plant response rating, Corn (corn (Zea mays); Postemergence, 16 g ai/ha): 0 | Plant response rating, Corn (corn (Zea mays); Postemergence, 31 g ai/ha): 0 | Plant response rating, Corn (corn (Zea mays); Postemergence, 62 g ai/ha): 0 | Plant response rating, Corn (corn (Zea mays); Postemergence, 125 g ai/ha): 0 | Plant response rating, Corn (corn (Zea mays); Postemergence, 250 g ai/ha): 0 | Plant response rating, Field Bindweed ([2]; Postemergence, 16 g ai/ha): 0 | Plant response rating, Field Bindweed ([2]; Postemergence, 31 g ai/ha): 0 | Plant response rating, Field Bindweed ([2]; Postemergence, 62 g ai/ha): 0 | Plant response rating, Field Bindweed ([2]; Postemergence, 125 g ai/ha): 0 | Plant response rating, Field Bindweed ([2]; Postemergence, 250 g ai/ha): 0 | Plant response rating, Smartweed ([4]; 31 g ai/ha): 0 | Plant response rating, Smartweed ([4]; 62 g ai/ha): 0 | Plant response rating, Smartweed ([4]; 125 g ai/ha): 0 | Plant response rating, Smartweed ([4]; 250 g ai/ha): 0 | Plant response rating, Soybean (soybean (Glycine max); Postemergence, 31 g ai/ha): 0 | Plant response rating, Soybean (soybean (Glycine max); Postemergence, 62 g ai/ha): 0 | Plant response rating, Soybean (soybean (Glycine max); Postemergence, 125 g ai/ha): 0 | Plant response rating, Soybean (soybean (Glycine max); Postemergence, 250 g ai/ha): 0

Fc1cccc(NN=C(c2ccccc2)c2c[nH]nc2-c2cc(Cl)cc(Cl)c2)c1 [Compound 58]
Plant response rating, Ryegrass, Italian ([1]; 31 g ai/ha): 0 | Plant response rating, Ryegrass, Italian ([1]; 62 g ai/ha): 0 | Plant response rating, Ryegrass, Italian ([1]; 125 g ai/ha): 0 | Plant response rating, Ryegrass, Italian ([1]; 250 g ai/ha): 0 | Plant response rating, Ryegrass, Italian ([1]; 500 g ai/ha): 0 | Plant response rating, Corn (corn (Zea mays); Postemergence, 31 g ai/ha): 0 | Plant response rating, Corn (corn (Zea mays); Postemergence, 62 g ai/ha): 0 | Plant response rating, Corn (corn (Zea mays); Postemergence, 125 g ai/ha): 0 | Plant response rating, Corn (corn (Zea mays); Postemergence, 250 g ai/ha): 0 | Plant response rating, Corn (corn (Zea mays); Postemergence, 500 g ai/ha): 0 | Plant response rating, Field Bindweed ([2]; Postemergence, 31 g ai/ha): 0 | Plant response rating, Field Bindweed ([2]; Postemergence, 62 g ai/ha): 0 | Plant response rating, Field Bindweed ([2]; Postemergence, 125 g ai/ha): 0 | Plant response rating, Field Bindweed ([2]; Postemergence, 250 g ai/ha): 0 | Plant response rating, Field Bindweed ([2]; Postemergence, 500 g ai/ha): 10 | Plant response rating, Smartweed ([4]; 31 g ai/ha): 0 | Plant response rating, Smartweed ([4]; 125 g ai/ha): 50 | Plant response rating, Soybean (soybean (Glycine max); Postemergence, 31 g ai/ha): 0 | Plant response rating, Soybean (soybean (Glycine max); Postemergence, 62 g ai/ha): 0 | Plant response rating, Soybean (soybean (Glycine max); Postemergence, 125 g ai/ha): 0 | Plant response rating, Soybean (soybean (Glycine max); Postemergence, 250 g ai/ha): 0 | Plant response rating, Soybean (soybean (Glycine max); Postemergence, 500 g ai/ha): 0
